These results are taken from DBAASP.

Converted amounts (≈) assume the structure as drawn.

In general, MIC refers to the lowest concentration that inhibits growth of the organism. Low values mean a more susceptible organism, high ones a less susceptible organism.

Common to all, as to assay: ≥ marks a high value that may be exact or a test limit, other limits are often not marked, values filed in µg/mL are converted to µM
For assay [1], the system named is Candida albicans ATCC 36232.
The subject of assay [2] is Escherichia coli ATCC 2592.
Assay [3] deals with Micrococcus luteus ATCC 9341.
In assay [4] the test system is Pseudomonas aeruginosa ATCC 9027.
Assay [5] deals with Staphylococcus aureus ATCC 6538.
The subject of assay [6] is Escherichia coli DH5alpha.
Assay [7] concerns Klebsiella pneumoniae ATCC 10031.
Assay [8] concerns Salmonella enterica subsp. enterica serovar Typhimurium ATCC 14028.
Assay [9] has as its system Bacillus subtilis ATCC 6633.
Assay [10] has as its system Candida albicans ATCC 20032.
The subject of assay [11] is Escherichia coli ATCC 25922.
Assay [12] has as its system Staphylococcus aureus ATCC 25923.
In assay [13] the test system is Candida albicans NCYC 1467.
Assay [14] concerns Escherichia coli NCTC 10418.
Assay [15] relates to Pseudomonas aeruginosa ATCC 27853.
Assay [16] deals with Staphylococcus aureus ATCC 12493.
Assay [17] relates to Staphylococcus aureus NCTC 10788.
A further assay has as its system Staphylococcus aureus.
The test system of assay [18] is Staphylococcus epidermidis ATCC 12228.

Turning to `CC(C)C[C@H](NC(=O)[C@H](CS)NC(=O)[C@H](CCCCN)NC(=O)[C@H](C)NC(=O)[C@H](C)NC(=O)[C@H](CS)NC(=O)[C@H](C)NC(=O)[C@H](C)NC(=O)[C@@H](N)CC(=O)O)C(=O)N[C@@H](Cc1c[nH]c2ccccc12)C(=O)N[C@@H](CCCN=C(N)N)C(N)=O` [DAACAAKCLWR], the MIC was at least 166 µM in assay [1]; at least 166 µM in [2]; at least 166 µM in assay [3]; over 166 µM in [4]; 166 µM (≈ 200 µg/mL) in [5].
`CC(C)C[C@H](NC(=O)[C@H](Cc1ccccc1)NC(=O)[C@H](CCCCN)NC(=O)[C@H](C)NC(=O)[C@H](C)NC(=O)[C@H](CC(C)C)NC(=O)[C@H](CCCCN)NC(=O)[C@H](CCCCN)NC(=O)[C@H](CC(C)C)NC(=O)[C@H](CC(C)C)NC(=O)[C@H](CCCCN)NC(=O)[C@H](CC(C)C)NC(=O)[C@@H](N)Cc1ccccc1)C(=O)O` [FLKLLKKLAAKFL]: the values for the MIC in [6], in assay [7] and in [8] were 2.04 µM (≈ 3.13 µg/mL), 16.3 µM (≈ 25 µg/mL) and 16.3 µM (≈ 25 µg/mL), respectively.
For the compound `CC[C@H](C)[C@H](NC(=O)CN)C(=O)NCC(=O)NCC(=O)N[C@@H](C)C(=O)N[C@@H](CC(C)C)C(=O)N[C@@H](CC(C)C)C(=O)N[C@@H](CO)C(=O)N[C@@H](C)C(=O)NCC(=O)N[C@@H](CCCCN)C(=O)N[C@@H](CO)C(=O)N[C@@H](C)C(=O)N[C@@H](CC(C)C)C(=O)N[C@@H](CCCCN)C(=O)NCC(=O)N[C@@H](CC(C)C)C(=O)N[C@@H](C)C(=O)N[C@@H](CCCCN)C(=O)NCC(=O)N[C@@H](CC(C)C)C(=O)N[C@@H](C)C(=O)N[C@@H](CCC(=O)O)C(=O)N[C@@H](Cc1cnc[nH]1)C(=O)N[C@@H](Cc1ccccc1)C(N)=O` [GIGGALLSAGKSALKGLAKGLAEHF], the MIC is at least 42.3 µM in [9], at least 42.3 µM in assay [10], 31.7 µM (≈ 75 µg/mL) in assay [11] and 15.8 µM (≈ 37.5 µg/mL) in assay [12].
As to `CC[C@H](C)[C@@H]1NC(=O)[C@H](CO)NC(=O)[C@H](CCCCN)NC(=O)[C@H]([C@@H](C)O)NC(=O)[C@H](Cc2c[nH]c3ccccc23)NC(=O)[C@@H](NC(=O)[C@H](CCCN=C(N)N)NC(=O)[C@H](CCCN=C(N)N)NC(=O)[C@H](CCCN=C(N)N)NC(=O)[C@H](CCC(N)=O)NC(=O)[C@H](CCCN=C(N)N)NC(=O)[C@H](CCCN=C(N)N)NC(=O)[C@H](CCCCN)NC(=O)[C@H](CCCCN)NC(=O)[C@@H](N)CCCN=C(N)N)CSSC[C@@H](C(=O)O)NC(=O)[C@@H]2CCCN2C(=O)[C@H](CCCCN)NC(=O)[C@@H]2CCCN2C(=O)[C@@H]2CCCN2C1=O` [RKKRRQRRRCWTKSIPPKPC], the minimum inhibitory concentration (MIC) in [13] was 4 µM (≈ 10.3 µg/mL); in assay [14], at least 128 µM; in assay [15], 256 µM (≈ 660 µg/mL); in assay [16], at least 256 µM; in assay [17], at least 128 µM.
For the compound `CC(C)[C@H](NC(=O)[C@H](CS)NC(=O)[C@@H](NC(=O)[C@H](CCCN=C(N)N)NC(=O)[C@H](CCCCN)NC(=O)CNC(=O)[C@H](CC(N)=O)NC(=O)[C@H](CS)NC(=O)[C@H](Cc1ccc(O)cc1)NC(=O)CNC(=O)CNC(=O)[C@H](CO)NC(=O)[C@@H](N)CCCN=C(N)N)C(C)C)C(=O)N[C@@H](CS)C(=O)N[C@@H](CCCN=C(N)N)C(=O)O` [RSGGYCNGKRVCVCR], the MIC in assay [9] was 7.54 µM (≈ 12.5 µg/mL); in [1] it was 15.1 µM (≈ 25 µg/mL); in [2], 30.2 µM (≈ 50 µg/mL); in [3] it was 15.1 µM (≈ 25 µg/mL); in assay [4], 30.2 µM (≈ 50 µg/mL); in assay [5], 15.1 µM (≈ 25 µg/mL). Further, the MIC was over 60.3 µM against Staphylococcus aureus and 7.54 µM (≈ 12.5 µg/mL) in assay [18].
Consider `CC(C)C[C@H](NC(=O)[C@H](C)NC(=O)[C@@H](N)CO)C(=O)N[C@H](C(=O)NCC(=O)N[C@H]1CSSC[C@@H](C(=O)N[C@@H](Cc2ccccc2)C(=O)NCC(=O)N[C@@H](CCCN=C(N)N)C(=O)NCC(=O)O)NC(=O)[C@@H]2CCCN2C(=O)[C@H](CC(N)=O)NC(=O)[C@@H]2CCCN2C(=O)[C@@H]2CCCN2C(=O)[C@H](Cc2ccc(O)cc2)NC(=O)[C@H](CO)NC(=O)[C@H](CCCCN)NC(=O)[C@H]([C@@H](C)O)NC(=O)[C@H](Cc2c[nH]c3ccccc23)NC1=O)C(C)C` [SALVGCWTKSYPPNPCFGRG], for which the values for the MIC in assay [10] and in assay [12] were at least 46.7 µM and 11.7 µM (≈ 25 µg/mL), respectively.
